Columns and labels:
TNFα = TNFα secretion by human white blood cells stimulated with PMA/ionomycin, synergy score; assay type: cell-based; details: PBMC stimulated with PMA/Ionomycin
Description: A 100 μl suspension of diluted human white blood cells contained within each well of a polystyrene 384-well plate (NalgeNunc) was stimulated to secrete TNFα by treatment with a final concentration of 10 ng/mL phorbol 12-myristate 13-acetate (Sigma, P-1585) and 750 ng/mL ionomycin (Sigma, I-0634). Various concentrations of each test compound were added at the time of stimulation. After 16-18 hours of incubation at 37° C. in a humidified incubator, the plate was centrifuged and the supernatant transferred to a white opaque polystyrene 384-well plate (NalgeNunc, Maxisorb) coated with an anti-TNFα antibody (PharMingen, #551220). After a two-hour incubation, the plate was washed (Tecan PowerWasher 384) with PBS containing 0.1% Tween 20 and incubated for an additional one hour with another anti-TNFα antibody that was biotin labeled (PharMingen, #554511) and HRP coupled to strepavidin (PharMingen, #13047E). After the plate was washed with 0.1% Tween 20/PBS, an HRP-luminescent substrate was added to each well and light intensity measured using a LJL Analyst plate luminometer.
The synergy scores calculated for the various combinations of compounds set forth in Table 3 was calculated by the formula S=log fX log fYΣIdata(Idata−ILoewe), summed over all non-single-agent concentration pairs, and where log fX,Y are the natural logarithm of the dilution factors used for each single agent. This effectively calculates a volume between the measured and Loewe additive response surfaces, weighted towards high inhibition and corrected for varying dilution factors.

[1] = system: carrageenan-induced pain model in rats; assay: Carrageenan pain model, mechanical allodynia by Von Frey filaments; assay type: in vivo, Sprague-Dawley rats; details: for Mean AUC ± SEM: AUC from 20 minutes through 120 minutes following carrageenan injection; for Mean change from baseline ± SEM: Experiment Two; for mean change from baseline: Table 4
Description: The carrageenan model is a fast, reliable model used to assess the ability of analgesics to block inflammatory pain. The analgesic effects of test article combinations on pain generation are assayed using the carrageenan-induced pain model in rats. Adult male Sprague-Dawley rats are administered study drugs intraperitoneally (vehicle, tricyclic compound (TCA), steroid or TCA/Steroid test article combinations) once daily for 2 days (day −2 and day −1) and 30 minutes prior to the carrageenan injection on day 0 (time=0). For the carrageenan injection, animals are lightly anesthetized and 0.1 ml of 2% carrageenan is injected into the plantar surface of the right hind paw. The positive control diclofenac at a dose of 25 mg/kg is administered intraperitoneally immediately before the carrageenan injection. Paw volumes (right and left) are measured using a plathysmometer before drug administration on day −2 and serve as a baseline measurement. The paw volumes are measured again two hours post carrageenan injection. The degree of mechanical allodynia is measured by a blinded observer using Von Frey filaments applied to the plantar surface of the hind paws in an increasing numerical order. Each filament increases the force applied on the paw. The filaments are applied until animal paw withdrawal is achieved. This procedure is carried out before drug administration (day −2), on day −1 and on day 0 at time=0, 20, 40, 60, 80 and 120 minutes post-carrageenan. The force (expressed in grams) required for paw withdrawal after carrageenan injection is subtracted from the force required for paw withdrawal before carrageenan injection. Results are expressed as mean change from baseline across five timepoints post carrageenan injection in Table 4.
For a synergy calculation, experimental data from the carrageenan study are fitted to a median-effect model and used to calculate the parameters' median-effect dose (Dm), slope (m), correlation coefficient (r), combination index (CI) and dose-reduction index (DRI). In addition, the probability of pain inhibition occurring after single-component (nortriptyline) versus the combination drug treatments are calculated from the negative change from baseline data using a Bayesian sensitivity analysis. The likelihood of pain inhibition is characterized for nortriptyline administered alone (1 mg/kg or 3 mg/kg) versus the fixed-dose combination treatments [prednisolone (0.3 mg/kg):nortriptyline (1 mg/kg) or prednisolone (1 mg/kg):nortriptyline (3 mg/kg)] each evaluated at 60 and 80 minutes for analgesic effect.
In another example, the effects of test article combinations on pain inhibition were assayed using the carrageenan model in rodents. Desipramine was tested alone and in combination at 0.3, 1, and 3 mg/kg and prednisolone was tested similarly at 0.3, 1 and 3 mg/kg IP.

CNCCC=C1c2ccccc2CCc2ccccc21 [Nortriptyline]
Synergy Score based on TNF-α inhibition (TNFα; combination with Betamethasone): 0.83
Synergy Score based on TNF-α inhibition (TNFα; combination with Budesonide): 1.6
Synergy Score based on TNF-α inhibition (TNFα; combination with Dexamethasone): 1.7
Synergy Score based on TNF-α inhibition (TNFα; combination with Hydrocortisone): 0.72
Synergy Score based on TNF-α inhibition (TNFα; combination with Prednisolone): 1.1
Synergy Score based on TNF-α inhibition (TNFα; combination with Triamcinolone): 0.88
Mean AUC ± SEM ([1]; 1 mg/Kg): 1895 ± 547.01
Mean AUC ± SEM ([1]; 3 mg/Kg): 3082 ± 275.81
Mean change from baseline ± SEM ([1]; first set of rows, 1 mg/kg, 20 minutes): 16.94 ± 7.35 g
Mean change from baseline ± SEM ([1]; first set of rows, 1 mg/kg, 40 minutes): 17.01 ± 7.37 g
Mean change from baseline ± SEM ([1]; first set of rows, 1 mg/kg, 60 minutes): 22.36 ± 4.36 g
Mean change from baseline ± SEM ([1]; first set of rows, 1 mg/kg, 80 minutes): 29.59 ± 4.80 g
Mean change from baseline ± SEM ([1]; first set of rows, 1 mg/kg, 120 minutes): 37.64 ± 5.20 g
Mean change from baseline ± SEM ([1]; first set of rows, 3 mg/kg, 20 minutes): 5.83 ± 6.21 g
Mean change from baseline ± SEM ([1]; first set of rows, 3 mg/kg, 40 minutes): 5.83 ± 6.21 g
Mean change from baseline ± SEM ([1]; first set of rows, 3 mg/kg, 60 minutes): 12.87 ± 5.09 g
Mean change from baseline ± SEM ([1]; first set of rows, 3 mg/kg, 80 minutes): 15.84 ± 5.10 g
Mean change from baseline ± SEM ([1]; first set of rows, 3 mg/kg, 120 minutes): 35.98 ± 4.09 g
Mean change from baseline ± SEM ([1]; second set of rows, 1 mg/kg, 20 minutes): 17.00 ± 6.43 g
Mean change from baseline ± SEM ([1]; second set of rows, 1 mg/kg, 40 minutes): -4.25 ± 4.25 g
Mean change from baseline ± SEM ([1]; second set of rows, 1 mg/kg, 60 minutes): 32.50 ± 4.96 g
Mean change from baseline ± SEM ([1]; second set of rows, 1 mg/kg, 80 minutes): 29.75 ± 4.25 g
Mean change from baseline ± SEM ([1]; second set of rows, 1 mg/kg, 120 minutes): 33.88 ± 5.21 g
Mean change from baseline ± SEM ([1]; second set of rows, 3 mg/kg, 20 minutes): 17.00 ± 6.43 g
Mean change from baseline ± SEM ([1]; second set of rows, 3 mg/kg, 40 minutes): 0.00 ± 6.43 g
Mean change from baseline ± SEM ([1]; second set of rows, 3 mg/kg, 60 minutes): 17.00 ± 6.43 g
Mean change from baseline ± SEM ([1]; second set of rows, 3 mg/kg, 80 minutes): 0.00 ± 0.00 g
Mean change from baseline ± SEM ([1]; second set of rows, 3 mg/kg, 120 minutes): 0.00 ± 0.00 g
mean change from baseline ([1]; 1 mg/kg ip, 20 minutes post carrageenan): 25.50 ± 7.90 grams
mean change from baseline ([1]; 1 mg/kg ip, 40 minutes post carrageenan): −4.70 ± 8.13 grams
mean change from baseline ([1]; 1 mg/kg ip, 60 minutes post carrageenan): −59.30 ± 10.6 grams
mean change from baseline ([1]; 1 mg/kg ip, 80 minutes post carrageenan): −99.70 ± 13.75 grams
mean change from baseline ([1]; 1 mg/kg ip, 120 minutes post carrageenan): −146.90 ± 19.62 grams
mean change from baseline ([1]; 3 mg/kg ip, 20 minutes post carrageenan): 7.40 ± 10.10 grams
mean change from baseline ([1]; 3 mg/kg ip, 40 minutes post carrageenan): −49.20 ± 11.54 grams
mean change from baseline ([1]; 3 mg/kg ip, 60 minutes post carrageenan): −109.20 ± 11.54 grams
mean change from baseline ([1]; 3 mg/kg ip, 80 minutes post carrageenan): −169.20 ± 11.54 grams
mean change from baseline ([1]; 3 mg/kg ip, 120 minutes post carrageenan): −205.40 ± 11.35 grams
mean change from baseline ([1]; 10 mg/kg ip, 20 minutes post carrageenan): −4.00 ± 8.20 grams
mean change from baseline ([1]; 10 mg/kg ip, 40 minutes post carrageenan): −68.60 ± 10.46 grams
mean change from baseline ([1]; 10 mg/kg ip, 60 minutes post carrageenan): −112.80 ± 13.51 grams
mean change from baseline ([1]; 10 mg/kg ip, 80 minutes post carrageenan): −157.00 ± 17.21 grams
mean change from baseline ([1]; 10 mg/kg ip, 120 minutes post carrageenan): −185.80 ± 20.18 grams
mean change from baseline ([1]; 20 mg/kg ip, 20 minutes post carrageenan): −17.60 ± 5.89 grams
mean change from baseline ([1]; 20 mg/kg ip, 40 minutes post carrageenan): −74.20 ± 7.72 grams
mean change from baseline ([1]; 20 mg/kg ip, 60 minutes post carrageenan): −130.80 ± 10.37 grams
mean change from baseline ([1]; 20 mg/kg ip, 80 minutes post carrageenan): −190.80 ± 10.37 grams
mean change from baseline ([1]; 20 mg/kg ip, 120 minutes post carrageenan): −255.40 ± 14.97 grams
decrease of median-effect dose (Dm) after co-administration compared to the monotherapy ([1]; median-effect model, prednisolone/nortriptyline 1:3 fixed ratios): 4 fold
